Drawing on patent US11407748B2, “Substituted pyrido[1,2-a]pyrimidines and pyrazino[1,2-a]pyrimidines for enhancing AMPA receptor function” (Takeda Pharmaceutical Company Limited, priority 2017, dated 2022), this text covers activation for 23 compounds.

The structures appear in SMILES notation.

This experiment deals with T1, hGluR1 flip (Homo sapiens, UniProt P42261).
T1 construct: expressed in transfected cells; host or cells: CHO-K1
T1 sequence (P42261 19-906 isoform P42261-2 limits assumed): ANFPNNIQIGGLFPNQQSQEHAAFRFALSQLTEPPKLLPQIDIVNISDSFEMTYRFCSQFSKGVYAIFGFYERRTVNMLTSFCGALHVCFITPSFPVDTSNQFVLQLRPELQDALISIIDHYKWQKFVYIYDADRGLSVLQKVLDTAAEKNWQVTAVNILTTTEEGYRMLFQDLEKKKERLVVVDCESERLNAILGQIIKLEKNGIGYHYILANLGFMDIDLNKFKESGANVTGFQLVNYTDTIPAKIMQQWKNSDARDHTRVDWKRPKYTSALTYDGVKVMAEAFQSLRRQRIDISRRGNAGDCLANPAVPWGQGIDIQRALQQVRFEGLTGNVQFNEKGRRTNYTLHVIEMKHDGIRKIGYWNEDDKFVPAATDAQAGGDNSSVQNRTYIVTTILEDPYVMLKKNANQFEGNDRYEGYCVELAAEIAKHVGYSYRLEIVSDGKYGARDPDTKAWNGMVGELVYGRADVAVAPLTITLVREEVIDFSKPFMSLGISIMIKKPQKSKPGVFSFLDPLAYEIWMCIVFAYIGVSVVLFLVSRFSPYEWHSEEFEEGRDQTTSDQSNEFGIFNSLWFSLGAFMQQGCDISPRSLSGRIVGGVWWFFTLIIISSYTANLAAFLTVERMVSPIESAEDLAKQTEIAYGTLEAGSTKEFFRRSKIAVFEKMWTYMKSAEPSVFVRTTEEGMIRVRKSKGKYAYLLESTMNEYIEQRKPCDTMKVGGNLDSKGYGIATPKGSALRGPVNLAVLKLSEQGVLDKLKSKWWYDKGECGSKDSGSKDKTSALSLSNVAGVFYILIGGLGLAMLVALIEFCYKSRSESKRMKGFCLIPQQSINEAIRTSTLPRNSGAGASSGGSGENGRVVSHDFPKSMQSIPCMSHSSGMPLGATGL
T1 sequence (Q9Y698 whole entry partner): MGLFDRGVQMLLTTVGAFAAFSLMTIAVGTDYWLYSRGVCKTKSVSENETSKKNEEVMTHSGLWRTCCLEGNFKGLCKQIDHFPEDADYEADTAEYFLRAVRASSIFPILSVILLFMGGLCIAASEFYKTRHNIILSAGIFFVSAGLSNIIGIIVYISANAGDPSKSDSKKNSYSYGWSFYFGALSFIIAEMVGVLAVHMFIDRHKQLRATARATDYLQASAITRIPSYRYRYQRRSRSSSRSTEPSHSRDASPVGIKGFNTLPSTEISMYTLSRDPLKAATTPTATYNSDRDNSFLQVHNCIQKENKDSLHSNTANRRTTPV
Nature of the experiment: AMPA receptor function-enhancing activity using calcium influx as index. The class given is cell-based. As to conditions: test compound 30 μM with 3 mM glutamic acid; CHO-K1/GluR1 flip/stargazin-expressing cells; 100% = 3 mM glutamic acid + 300 μM cyclothiazide, 0% = 3 mM glutamic acid alone. The text has this:
Experimental Example 1 Measurement Method of AMPA Receptor Function-Enhancing Activity of Compound Using Calcium Influx as Index
(1) Construction of Expression Gene
Human GluR^1 flip cDNA was amplified by PCR method using forward primer […] (SEQ ID NO: 1) and reverse primer […] (SEQ ID NO: 2) artificially synthesized using human brain-derived cDNA (BD Bioscience) as a template. The amplified product was digested with restriction enzymes EcoRI, NotI (TAKARA SHUZO CO. LTD.) and incorporated into the same site of pcDNA3.1 (+) (Invitrogen) to construct pcDNA3.1(+)/human GluR1 flip gene. Human stargazin cDNA was amplified by PCR method using forward primer […] (SEQ ID NO: 3) and reverse primer […] (SEQ ID NO: 4) artificially synthesized using human hippocampus cDNA as a template. The amplified product was digested with restriction enzymes XhoI, BamHI (TAKARA SHUZO CO. LTD.) and incorporated into the same site of pcDNA3.1(−) (Invitrogen) to construct pcDNA3.1 Zeo(−)/human stargazing gene.
(2) Construction of GluR1 Flip/Stargazin Expressing Cell
CHO-K1 cells passaged in a culture medium (Ham's F12 medium (Invitrogen) added with 10% inactivated fetal bovine serum (Morgate) and penicillin, streptomycin (Invitrogen)) were detached using 0.05% trypsin and 0.53 mM EDTA (Invitrogen) diluted with D-PBS(−). The detached cells were suspended in a culture medium, and recovered by centrifugation at 1,000 rpm. The recovered cells were re-suspended in D-PBS(−) and added into 0.4 cm electroporation cuvette (BioRad). pcDNA3.1(+)/human GluR1 flip gene (5 μg) and pcDNA3.1 Zeo(−)/human stargazin gene (15 μg) were added, and introduced into CHO-K1 cells under the conditions of 950 μFd, […] and using Gene Pulser II (BioRad). The introduced cells were cultured overnight in a culture medium. The next day, using a selection medium (culture medium added with zeocin (Invitrogen) at 250 μg/mL), the cells were plated in a 96 well plate at 250 cells/well. The clones showing drug resistance were selected, and GluR1 flip/stargazin expression clones were selected by an assay method shown below using calcium influx as an index.
(3) Measurement Method of AMPA Receptor Function-Enhancing Activity of Compound, Using Calcium Influx as an Index
CHO-K1/GluR1 flip/stargazin-expressing cells were plated on a 384 well black bottom transparent plate, and cultured for 2 days in a CO2 incubator (SANYO ELECTRIC Co. Ltd.) at 37° C. The medium of the cell plate was removed. A calcium indicator (Calcium5 Assay Kit, Molecular Devices) was diluted with an assay buffer (HESS (Thermo Fisher Scientific), 0.1% BSA (Merck Millipoer) and 10 mM HEPES (Thermo Fisher Scientific)), and 1.25 mM probenecid (Dojindo Laboratories) was added thereto. The mixture prepared above was added at 30 μL/well (100 μL/well in case of 96 wells) to the well, and the well was left standing in 37° C., CO2 incubator for 1 hr. The cell plate was set in CellLux (PerkinElmer), a mixture (15 μL) (50 μL/well in case of 96 wells) of 9 mM glutamic acid (final concentration 3 mM) diluted with an assay buffer and a test compound (test compound concentration 30 μM) was added thereto, and variation in the amount of fluorescence was measured for 3 min. The variation of fluorescence level of a well added with final concentration 3 mM of glutamic acid and 300 μM cyclothiazide (TOCRIS) was defined as 100%, the variation of fluorescence level of a well added with final concentration 3 mM of glutamic acid alone was defined as 0%, and the activity of the compound was calculated by the following formula. activity (%)=(X−C)/(T−C)×100 • T: variation of fluorescence level of well added with final concentration 3 mM of glutamic acid and 300 μM cyclothiazide • C: variation of fluorescence level of well added with final concentration 3 mM of glutamic acid alone • X: variation of fluorescence level of well added with test compound
Regarding `O=C(c1ccc(-c2cccn3c(=O)cc(C(F)(F)F)nc23)cc1F)N1CCOCC1` [Example 44, 9-(3-fluoro-4-(morpholin-4-ylcarbonyl)phenyl)-2-(trifluoromethyl)-4H-pyrido[1,2-a]pyrimidin-4-one], the activation at 30 µM came to 73.8%. Regarding `Cc1c(C(F)(F)F)nc2c(-c3ccc(C(=O)N4CCOCC4)c(F)c3)cccn2c1=O` [Example 45, 9-(3-fluoro-4-(morpholin-4-ylcarbonyl)phenyl)-3-methyl-2-(trifluoromethyl)-4H-pyrido[1,2-a]pyrimidin-4-one], the activation at 30 µM came to 82.6%. For the compound `O=C(c1ccc(-c2cccn3c(=O)c(Br)c(C(F)(F)F)nc23)cc1F)N1CCOCC1` [Example 46, 3-bromo-9-(3-fluoro-4-(morpholin-4-ylcarbonyl)phenyl)-2-(trifluoromethyl)-4H-pyrido[1,2-a]pyrimidin-4-one], the activation at 30 µM worked out at 77.3%. With `C[C@@H]1CN(C(=O)c2ccc(-c3cccn4c(=O)c(Br)c(C(F)(F)F)nc34)cc2)CCO1` [Example 49, 3-bromo-9-(4-(((2R)-2-methylmorpholin-4-yl)carbonyl)phenyl)-2-(trifluoromethyl)-4H-pyrido[1,2-a]pyrimidin-4-one], the activation at 30 µM amounted to 71.6%. Take `O=C(N[C@H]1CCOC1)c1ccc(-c2cccn3c(=O)c(Br)c(C(F)(F)F)nc23)cc1` [Example 55, 4-(3-bromo-4-oxo-2-(trifluoromethyl)-4H-pyrido[1,2-a]pyrimidin-9-yl)-N-((3S)-tetrahydrofuran-3-yl)benzamide]: the activation at 30 µM came out at 75.1%. With `O=C(NC1CCOCC1)c1ccc(-c2cccn3c(=O)c(Br)c(C(F)(F)F)nc23)cc1` [Example 57, 4-(3-bromo-4-oxo-2-(trifluoromethyl)-4H-pyrido[1,2-a]pyrimidin-9-yl)-N-(tetrahydro-2H-pyran-4-yl)benzamide], the activation at 30 µM stood at 78.7%. Regarding `O=C(c1ccc(-c2cccn3c(=O)c(Br)c(C(F)(F)F)nc23)cc1)N1CCC1` [Example 61, 9-(4-(azetidin-1-ylcarbonyl)phenyl)-3-bromo-2-(trifluoromethyl)-4H-pyrido[1,2-a]pyrimidin-4-one], the activation at 30 µM was 77.1%. In the case of `O=C(c1ccc(-c2cccn3c(=O)c(Br)c(C(F)(F)F)nc23)cc1)N1CCCC1` [Example 62, 3-bromo-9-(4-(pyrrolidin-1-ylcarbonyl)phenyl)-2-(trifluoromethyl)-4H-pyrido[1,2-a]pyrimidin-4-one], the activation at 30 µM turned out to be 76.9%. For the compound `O=C(c1ccc(-c2cccn3c(=O)c(Br)c(C(F)(F)F)nc23)cc1)N1CCc2cccnc21` [Example 65, 3-bromo-9-(4-(2,3-dihydro-1H-pyrrolo[2,3-b]pyridin-1-ylcarbonyl)phenyl)-2-(trifluoromethyl)-4H-pyrido[1,2-a]pyrimidin-4-one], the activation at 30 µM was found to be 74.6%. As for `Cc1c(C(F)(F)F)nc2c(-c3ccc(C(=O)N4CCO[C@@H](C)C4)cc3)cccn2c1=O` [Example 67, 3-methyl-9-(4-(((2S)2-methylmorpholin-4-yl)carbonyl)phenyl)-2-(trifluoromethyl)-4H-pyrido[1,2-a]pyrimidin-4-one], the activation at 30 µM stood at 73.5%. Consider `Cc1c(C(F)(F)F)nc2c(-c3ccc(C(=O)N4CCOC(F)(F)C4)cc3)cccn2c1=O` [Example 68, 9-(4-((2,2-difluoromorpholin-4-yl)carbonyl)phenyl)-3-methyl-2-(trifluoromethyl)-4H-pyrido[1,2-a]pyrimidin-4-one], for which the activation at 30 µM was 88.4%. Take `Cc1c(C(F)(F)F)nc2c(-c3ccc(C(=O)N4CCCOCC4)cc3)cccn2c1=O` [Example 69, 3-methyl-9-(4-(1,4-oxazepan-4-ylcarbonyl)phenyl)-2-(trifluoromethyl)-4H-pyrido[1,2-a]pyrimidin-4-one]: the activation at 30 µM amounted to 79.9%. As to `O=C(NCC1CC1)c1ccc(-c2cccn3c(=O)c(Br)c(C(F)(F)F)nc23)cc1F` [Example 70, 4-(3-bromo-4-oxo-2-(trifluoromethyl)-4H-pyrido[1,2-a]pyrimidin-9-yl)-N-(cyclopropylmethyl)-2-fluorobenzamide], the activation at 30 µM was found to be 71.4%. With `O=C(c1ccc(-c2cccn3c(=O)c(Br)c(C(F)(F)F)nc23)cc1F)N1CCOC(F)(F)C1` [Example 71, 3-bromo-9-(4-((2,2-difluoromorpholin-4-yl)carbonyl)-3-f1uorophenyl)-2-(trifluoromethyl)-4H-pyrido[1,2-a]pyrimidin-4-one] the figure was 72.3%; with `COCCNC(=O)c1ccc(-c2cccn3c(=O)c(Br)c(C(F)(F)F)nc23)cc1F` [Example 72, 4-(3-bromo-4-oxo-2-(trifluoromethyl)-4H-pyrido[1,2-a]pyrimidin-9-yl)-2-fluoro-N-(2-methoxyethyl)benzamide], 76.4%. Turning to `C[C@H]1CN(C(=O)c2ccc(-c3cccn4c(=O)c(Br)c(C(F)(F)F)nc34)cc2F)CCO1` [Example 73, 3-bromo-9-(3-fluoro-4-(((2S)-2-methylmorpholin-4-yl)carbonyl)phenyl)-2-(trifluoromethyl)-4H-pyrido[1,2-a]pyrimidin-4-one], the activation at 30 µM is 87.9%. Next, `C[C@@H]1CN(C(=O)c2ccc(-c3cccn4c(=O)c(Br)c(C(F)(F)F)nc34)cc2F)CCO1` [Example 74, 3-bromo-9-(3-fluoro-4-(((2R)-2-methylmorpholin-4-yl)carbonyl)phenyl)-2-(trifluoromethyl)-4H-pyrido[1,2-a]pyrimidin-4-one]: 88.2%; `O=C(c1ccc(-c2cccn3c(=O)c(Br)c(C(F)(F)F)nc23)cc1F)N1CCCOCC1` [Example 75, 3-bromo-9-(3-fluoro-4-(1,4-oxazepan-4-ylcarbonyl)phenyl)-2-(trifluoromethyl)-4H-pyrido[1,2-a]pyrimidin-4-one]: 99.1%. With `Cc1c(C(F)(F)F)nc2c(-c3ccc(C(=O)N4CCCOCC4)c(F)c3)cccn2c1=O` [Example 76, 9-(3-fluoro-4-(1,4-oxazepan-4-ylcarbonyl)phenyl)-3-methyl-2-(trifluoromethyl)-4H-pyrido[1,2-a]pyrimidin-4-one] the figure was 93.3%; with `O=C(c1ccc(-c2cccn3c(=O)cc(C(F)(F)F)nc23)cc1F)N1CCc2cccnc21` [Example 78, 9-(4-(2,3-dihydro-1H-pyrrolo[2,3-b]pyridin-1-ylcarbonyl)-3-fluorophenyl)-2-(trifluoromethyl)-4H-pyrido[1,2-a]pyrimidin-4-one], 94.2%. Consider `O=C(c1ccc(-c2cccn3c(=O)c(Br)c(C(F)(F)F)nc23)cc1F)N1CCc2cccnc21` [Example 79, 3-bromo-9-(4-(2,3-dihydro-1H-pyrrolo[2,3-b]pyridin-1-ylcarbonyl)-3-fluorophenyl)-2-(trifluoromethyl)-4H-pyrido[1,2-a]pyrimidin-4-one], for which the activation at 30 µM was determined as 79.6%.

As for `Cc1c(C(F)(F)F)nc2c(-c3ccc(C(=O)N4CCc5cccnc54)c(F)c3)cccn2c1=O` [Example 80, 9-(4-(2,3-dihydro-1H-pyrrolo[2,3-b]pyridin-1-ylcarbonyl)-3-fluorophenyl)-3-methyl-2-(trifluoromethyl)-4H-pyrido[1,2-a]pyrimidin-4-one], the activation at 30 µM worked out at 90.6%. For `O=C(c1ccc(-c2cccn3c(=O)c(Cl)c(C(F)(F)F)nc23)cc1F)N1CCCOCC1` [Example 81, 3-chloro-9-(3-fluoro-4-(1,4-oxazepan-4-ylcarbonyl)phenyl)-2-(trifluoromethyl)-4H-pyrido[1,2-a]pyrimidin-4-one], the activation at 30 µM worked out at 95.1%.
